Results taken from ChEMBL document CHEMBL4680278 (J Med Chem, 2020).

Legend:
[1] = Bioavailability in dog at 180 mg; type: ADME, organism-based, Canis lupus familiaris; details: in vivo
[2] = molecular target: T1, Cytochrome P450 1A2 (Homo sapiens, UniProt P05177); test: Competitive inhibition of human recombinant CYP1A2 using 7-Ethoxyresorufin as substrate by Lineweaver-Burk plot analysis; type: ADME; details: read-out: Ki(app)
T1 sequence (P05177 whole entry): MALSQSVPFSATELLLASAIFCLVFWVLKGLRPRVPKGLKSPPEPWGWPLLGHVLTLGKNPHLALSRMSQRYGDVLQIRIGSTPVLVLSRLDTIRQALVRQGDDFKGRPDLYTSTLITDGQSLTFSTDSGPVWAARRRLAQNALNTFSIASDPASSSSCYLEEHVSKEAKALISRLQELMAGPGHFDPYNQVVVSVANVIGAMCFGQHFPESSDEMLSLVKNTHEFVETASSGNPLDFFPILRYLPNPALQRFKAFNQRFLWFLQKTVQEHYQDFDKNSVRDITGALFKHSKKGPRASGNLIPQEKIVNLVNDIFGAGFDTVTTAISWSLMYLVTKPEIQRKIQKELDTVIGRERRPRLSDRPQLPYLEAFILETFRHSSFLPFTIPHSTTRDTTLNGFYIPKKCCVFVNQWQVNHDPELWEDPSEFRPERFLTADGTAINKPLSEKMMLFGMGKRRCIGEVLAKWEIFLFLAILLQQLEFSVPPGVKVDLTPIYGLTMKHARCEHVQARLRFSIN

[3] = molecular target: T2, Cytochrome P450 2A6 (Homo sapiens, UniProt P11509); test: Non-competitive inhibition of human recombinant CYP2A6 expressed in baculovirus-infected insect cells using coumarin as substrate preincubated for 5 mins followed by NADPH-generating system addition by Lineweaver-Burk plot analysis; type: ADME
T2 sequence (P11509 whole entry): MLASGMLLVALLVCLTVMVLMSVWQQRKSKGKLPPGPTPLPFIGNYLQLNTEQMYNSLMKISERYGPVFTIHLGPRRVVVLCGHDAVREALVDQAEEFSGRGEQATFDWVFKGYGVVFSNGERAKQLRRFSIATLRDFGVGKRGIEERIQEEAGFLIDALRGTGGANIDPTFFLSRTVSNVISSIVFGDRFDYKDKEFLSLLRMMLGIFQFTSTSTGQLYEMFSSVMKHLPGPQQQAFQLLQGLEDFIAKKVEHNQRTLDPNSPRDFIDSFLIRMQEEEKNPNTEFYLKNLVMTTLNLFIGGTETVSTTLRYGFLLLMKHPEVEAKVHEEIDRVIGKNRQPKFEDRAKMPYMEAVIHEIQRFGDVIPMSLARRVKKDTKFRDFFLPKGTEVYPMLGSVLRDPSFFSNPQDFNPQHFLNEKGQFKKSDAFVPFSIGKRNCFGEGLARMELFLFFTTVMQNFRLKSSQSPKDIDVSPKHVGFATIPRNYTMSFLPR

[4] = Half-life in human at 20 mg, iv measured after 0.05 to 72 hrs by gas chromatograph mass spectrometry; type: ADME, organism-based; details: in vivo, time 0.05-72 hrs
[5] = molecular target: Histamine H3 receptor (Homo sapiens, UniProt Q9Y5N1); test: Inhibition of histamine H3 receptor (unknown origin)
Chain of Histamine H3 receptor (Q9Y5N1 whole entry): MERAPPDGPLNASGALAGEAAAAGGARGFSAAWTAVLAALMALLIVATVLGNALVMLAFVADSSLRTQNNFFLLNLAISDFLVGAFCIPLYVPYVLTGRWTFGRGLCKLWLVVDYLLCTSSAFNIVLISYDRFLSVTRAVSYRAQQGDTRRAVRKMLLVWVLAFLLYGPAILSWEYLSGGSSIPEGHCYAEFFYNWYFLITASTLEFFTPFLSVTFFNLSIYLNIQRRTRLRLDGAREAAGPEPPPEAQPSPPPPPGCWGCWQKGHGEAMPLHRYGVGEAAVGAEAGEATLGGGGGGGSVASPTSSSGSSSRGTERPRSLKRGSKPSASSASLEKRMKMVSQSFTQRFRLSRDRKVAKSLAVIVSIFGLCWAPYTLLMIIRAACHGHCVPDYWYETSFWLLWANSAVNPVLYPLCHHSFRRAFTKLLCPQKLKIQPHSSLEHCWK

[6] = Toxicity in pig assessed as mean arterial blood pressure drop at 50 mg/kg, iv administered for 15 mins by pulse oximetry relative to baseline; type: organism-based, Sus scrofa; details: in vivo, 0.25 h
[7] = Apparent oral clearance in human at 5 to 20 mg using oromucosal-spray formulation by GC-MS analysis; type: ADME; details: in vivo, dose 5-20 mg
[8] = molecular target: T3, Alpha-2B adrenergic receptor (Homo sapiens, UniProt P18089); test: Inhibition of alpha2B receptor (unknown origin)
T3 sequence (P18089 whole entry): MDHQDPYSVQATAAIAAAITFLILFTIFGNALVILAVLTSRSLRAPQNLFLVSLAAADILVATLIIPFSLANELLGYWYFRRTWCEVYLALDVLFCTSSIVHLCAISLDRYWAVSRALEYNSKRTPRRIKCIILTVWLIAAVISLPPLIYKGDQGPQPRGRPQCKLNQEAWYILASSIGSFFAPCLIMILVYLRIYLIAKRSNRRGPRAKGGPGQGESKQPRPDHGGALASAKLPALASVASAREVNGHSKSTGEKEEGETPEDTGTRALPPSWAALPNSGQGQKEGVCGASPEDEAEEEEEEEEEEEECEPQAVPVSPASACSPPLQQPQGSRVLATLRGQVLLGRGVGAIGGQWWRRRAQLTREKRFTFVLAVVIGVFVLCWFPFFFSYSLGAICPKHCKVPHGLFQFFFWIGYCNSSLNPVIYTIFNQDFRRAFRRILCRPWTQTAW

[9] = test system: Homo sapiens; test: Anti-seizure activity in Lennox-Gastaut patient assessed as median percent reduction in seizure frequency at 20 mg/kg administered daily for 14 weeks (reference value: 17%); type: functional; set-up: scale not given: the % may be the effect or the level left
[10] = Maximum drug concentration in Swiss mouse brain at 120 mg/kg, po measured up to 24 hrs by HPLC analysis; type: ADME, organism-based; set-up: route oral, dose 120 mg/kg, time <=24
[11] = molecular target: D(1A) dopamine receptor (Homo sapiens, UniProt P21728); test: Inhibition of D1 dopamine receptor (unknown origin)
Chain of D(1A) dopamine receptor (P21728 whole entry): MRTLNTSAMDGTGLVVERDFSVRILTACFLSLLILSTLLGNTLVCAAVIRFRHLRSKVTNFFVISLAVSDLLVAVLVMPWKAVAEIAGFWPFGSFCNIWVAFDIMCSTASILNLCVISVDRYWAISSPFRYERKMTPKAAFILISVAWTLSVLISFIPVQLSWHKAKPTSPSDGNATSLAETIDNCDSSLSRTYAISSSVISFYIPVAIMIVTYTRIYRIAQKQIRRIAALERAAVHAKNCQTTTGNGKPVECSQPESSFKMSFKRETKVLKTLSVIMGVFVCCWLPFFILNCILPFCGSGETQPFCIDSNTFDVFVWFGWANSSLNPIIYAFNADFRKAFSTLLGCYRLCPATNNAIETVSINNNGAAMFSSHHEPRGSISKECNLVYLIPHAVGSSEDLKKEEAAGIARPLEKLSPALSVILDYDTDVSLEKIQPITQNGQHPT

[12] = Volume of distribution in human at 20 mg, iv measured after 0.05 to 72 hrs by gas chromatograph mass spectrometry; type: ADME, organism-based; details: in vivo, time 0.05-72 hrs
[13] = molecular target: T4, Cytochrome P450 2B6 (Homo sapiens, UniProt P20813); test: Mixed type inhibition of human recombinant CYP2B6 expressed in baculovirus-infected insect cells using […] as substrate preincubated for 5 mins followed by NADPH-generating system addition by Lineweaver-Burk plot analysis; type: ADME
T4 sequence (P20813 whole entry): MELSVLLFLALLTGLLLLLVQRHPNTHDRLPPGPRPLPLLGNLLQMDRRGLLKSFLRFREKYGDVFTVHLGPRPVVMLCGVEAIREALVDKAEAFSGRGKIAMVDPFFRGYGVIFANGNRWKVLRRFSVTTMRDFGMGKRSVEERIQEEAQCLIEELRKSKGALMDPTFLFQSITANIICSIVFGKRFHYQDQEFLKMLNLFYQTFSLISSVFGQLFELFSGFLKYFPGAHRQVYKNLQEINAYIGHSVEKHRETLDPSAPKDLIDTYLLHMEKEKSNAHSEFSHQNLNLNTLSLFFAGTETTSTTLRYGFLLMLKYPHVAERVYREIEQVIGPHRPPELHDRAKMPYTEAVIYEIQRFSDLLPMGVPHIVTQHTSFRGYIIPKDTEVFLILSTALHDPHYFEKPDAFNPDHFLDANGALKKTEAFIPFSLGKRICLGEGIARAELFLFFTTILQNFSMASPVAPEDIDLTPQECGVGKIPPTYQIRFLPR

## C=C(C)[C@@H]1CCC(C)=C[C@H]1c1c(O)cc(CCCCC)cc1O [CANNABIDIOL]
[1]
  bioavailability: 13%
[2]
  Ki: 2690 nM
[3]
  Ki: 55000 nM
[4]
  half-life: 24 h
[5]
  Ki: 3100 nM
[6]
  Activity: < 70%
[7]
  CL/F: 41700 mL/min
[8]
  Ki: 3200 nM
[9]
  Activity: 42%
[10]
  Cmax: 4 µM
[11]
  Ki: 2700 nM
[12]
  Vd: 2520 L
[13]
  Ki: 690 nM
